The results in this text go back to ChEMBL document CHEMBL3867422, “Design and synthesis of pyrimidinyl acyl thioureas as novel Hsp90 inhibitors in invasive ductal breast cancer and its bone metastasis” (Eur J Med Chem, 2016).

The target of experiment [1] is Heat shock protein HSP 90-alpha (Homo sapiens) (UniProt P07900). In words: Inhibition of human His-tagged Hsp90 alpha N-terminal domain ATPase activity expressed in Escherichia coli BL21(DE3) at 3.125 uM assessed as ADP formation by pyruvate kinase/lactate dehydrogenase-coupled assay.
The target is the same in experiment [2]. Briefly: Inhibition of human His-tagged Hsp90 alpha N-terminal domain ATPase activity expressed in Escherichia coli BL21(DE3) at 6.25 uM assessed as ADP formation by pyruvate kinase/lactate dehydrogenase-coupled assay.
Experiment [3] has the same target. Briefly: Inhibition of human His-tagged Hsp90 alpha N-terminal domain ATPase activity expressed in Escherichia coli BL21(DE3) at 12.5 uM assessed as ADP formation by pyruvate kinase/lactate dehydrogenase-coupled assay.
The target is the same in experiment [4]. In words: Inhibition of human His-tagged Hsp90 alpha N-terminal domain ATPase activity expressed in Escherichia coli BL21(DE3) at 50 uM assessed as ADP formation by pyruvate kinase/lactate dehydrogenase-coupled assay.
The target is the same in experiment [5]. In words: Inhibition of human His-tagged Hsp90 alpha N-terminal domain ATPase activity expressed in Escherichia coli BL21(DE3) at 25 uM assessed as ADP formation by pyruvate kinase/lactate dehydrogenase-coupled assay.
Experiment [6] shares this target. In words: Inhibition of human His-tagged Hsp90 alpha N-terminal domain ATPase activity expressed in Escherichia coli BL21(DE3) at 100 uM assessed as ADP formation by pyruvate kinase/lactate dehydrogenase-coupled assay.

On to `CCn1cc(C(=O)NC(=S)NCc2ccccc2)c(-c2ccccc2)nc1=O`, for which the Activity in experiment [1] turned out to be 90.2 nmol/min/mg; in experiment [2], 80 nmol/min/mg; in experiment [3], 75.1 nmol/min/mg; in experiment [4], 50.2 nmol/min/mg; in experiment [5], 61.2 nmol/min/mg; in experiment [6] it was 35.9 nmol/min/mg.
With `CCn1cc(C(=O)NC(=S)Nc2ccccc2)c(-c2ccccc2)nc1=O`, the Activity stood at 85.3 nmol/min/mg in experiment [1]; 70.3 nmol/min/mg in experiment [2]; 60.8 nmol/min/mg in experiment [3]; 32 nmol/min/mg in experiment [4]; 40.4 nmol/min/mg in experiment [5]; 26.1 nmol/min/mg in experiment [6].
As to `CCn1cc(C(=O)NC(=S)Nc2ccc(Cl)cc2)c(-c2ccccc2)nc1=O`, the Activity in experiment [1] was determined as 88.8 nmol/min/mg; in experiment [2] it was 83.5 nmol/min/mg; in experiment [3] it was 74.1 nmol/min/mg; in experiment [4], 61 nmol/min/mg; in experiment [5], 70.4 nmol/min/mg; in experiment [6], 49.8 nmol/min/mg.
In the case of `CCn1cc(C(=O)NC(=S)Nc2ccc(Br)cc2)c(-c2ccccc2)nc1=O`, the Activity stood at 80.1 nmol/min/mg in experiment [1]; 63.6 nmol/min/mg in experiment [2]; 39.7 nmol/min/mg in experiment [3]; 16.4 nmol/min/mg in experiment [4]; 26.6 nmol/min/mg in experiment [5]; 13.5 nmol/min/mg in experiment [6].
Consider `CCn1cc(C(=O)NC(=S)Nc2ccc(OC)cc2)c(-c2ccccc2)nc1=O`, for which the Activity came out at 81.1 nmol/min/mg in experiment [1]; 59.4 nmol/min/mg in experiment [2]; 37.7 nmol/min/mg in experiment [3]; 16.2 nmol/min/mg in experiment [4]; 28.5 nmol/min/mg in experiment [5]; 11.4 nmol/min/mg in experiment [6].
`CCn1cc(C(=O)NC(=S)Nc2ccccc2C)c(-c2ccccc2)nc1=O`: the Activity came to 93.5 nmol/min/mg in experiment [1]; 85.7 nmol/min/mg in experiment [2]; 70.9 nmol/min/mg in experiment [3]; 38 nmol/min/mg in experiment [4]; 50.1 nmol/min/mg in experiment [5]; 28.9 nmol/min/mg in experiment [6].
Consider `CCn1cc(C(=O)NC(=S)Nc2cccc3ccccc23)c(-c2ccccc2)nc1=O`, for which the Activity in experiment [1] came to 75.5 nmol/min/mg; in experiment [2], 49.5 nmol/min/mg; in experiment [3] it was 36.1 nmol/min/mg; in experiment [4], 13.2 nmol/min/mg; in experiment [5], 24.4 nmol/min/mg; in experiment [6] it was 8.19 nmol/min/mg.
Turning to `CCn1cc(C(=O)NC(=S)Nc2ccc(F)cc2)c(-c2ccccc2)nc1=O`, the Activity in experiment [1] was 92.6 nmol/min/mg; in experiment [2], 84.1 nmol/min/mg; in experiment [3], 72 nmol/min/mg; in experiment [4], 38.2 nmol/min/mg; in experiment [5], 53.1 nmol/min/mg; in experiment [6], 27.6 nmol/min/mg.
For the compound `CCn1cc(C(=O)NC(=S)Nc2ccc(C)cc2)c(-c2ccccc2)nc1=O`, the Activity in experiment [1] came to 90.2 nmol/min/mg; in experiment [2], 80.5 nmol/min/mg; in experiment [3], 72.9 nmol/min/mg; in experiment [4], 43.4 nmol/min/mg; in experiment [5] it was 55 nmol/min/mg; in experiment [6], 33.1 nmol/min/mg.
Regarding `CCn1cc(C(=O)NC(=S)Nc2ccc(C(N)=O)cc2)c(-c2ccccc2)nc1=O`, the Activity turned out to be 93.5 nmol/min/mg in experiment [1]; 87.1 nmol/min/mg in experiment [2]; 73.4 nmol/min/mg in experiment [3]; 51.1 nmol/min/mg in experiment [4]; 64 nmol/min/mg in experiment [5]; 37.5 nmol/min/mg in experiment [6].
